Assays:
[1] = target: T1, Lysine-specific histone demethylase 2 (Homo sapiens, UniProt Q8NB78); assay: Inhibition of N-terminal GST-tagged recombinant full length human LSD2 expressed in Baculovirus using Bio- H3K4me2 (1 to 24 residues) as substrate incubated for 1 hr by TR-FRET assay
T1 sequence (Q8NB78 whole entry): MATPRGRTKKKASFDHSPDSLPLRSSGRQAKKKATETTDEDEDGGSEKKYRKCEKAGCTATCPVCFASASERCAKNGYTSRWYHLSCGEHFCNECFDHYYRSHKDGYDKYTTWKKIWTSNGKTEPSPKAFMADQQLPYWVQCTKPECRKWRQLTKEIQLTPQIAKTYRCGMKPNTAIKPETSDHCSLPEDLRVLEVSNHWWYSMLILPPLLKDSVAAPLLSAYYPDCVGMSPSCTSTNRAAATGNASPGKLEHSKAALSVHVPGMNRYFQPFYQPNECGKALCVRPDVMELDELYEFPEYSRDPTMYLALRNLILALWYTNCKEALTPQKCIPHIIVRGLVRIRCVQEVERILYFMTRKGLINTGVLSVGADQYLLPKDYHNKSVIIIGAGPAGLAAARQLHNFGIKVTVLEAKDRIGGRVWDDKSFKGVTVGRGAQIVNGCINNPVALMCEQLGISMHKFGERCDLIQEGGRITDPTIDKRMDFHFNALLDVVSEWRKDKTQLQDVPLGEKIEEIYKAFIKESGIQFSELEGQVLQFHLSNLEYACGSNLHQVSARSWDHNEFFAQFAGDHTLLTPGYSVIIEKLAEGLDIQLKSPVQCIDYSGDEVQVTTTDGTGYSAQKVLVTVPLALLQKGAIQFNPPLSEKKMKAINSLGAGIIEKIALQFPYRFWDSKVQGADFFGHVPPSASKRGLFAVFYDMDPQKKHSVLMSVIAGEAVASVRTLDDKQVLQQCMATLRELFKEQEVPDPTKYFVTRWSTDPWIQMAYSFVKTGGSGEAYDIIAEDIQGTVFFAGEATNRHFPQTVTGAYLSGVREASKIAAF

[2] = target: T2, Cytochrome P450 1A2 (Homo sapiens, UniProt P05177); assay: Inhibition of CYP1A2 in human liver microsomes; type: ADME, Microsome
T2 sequence (P05177 whole entry): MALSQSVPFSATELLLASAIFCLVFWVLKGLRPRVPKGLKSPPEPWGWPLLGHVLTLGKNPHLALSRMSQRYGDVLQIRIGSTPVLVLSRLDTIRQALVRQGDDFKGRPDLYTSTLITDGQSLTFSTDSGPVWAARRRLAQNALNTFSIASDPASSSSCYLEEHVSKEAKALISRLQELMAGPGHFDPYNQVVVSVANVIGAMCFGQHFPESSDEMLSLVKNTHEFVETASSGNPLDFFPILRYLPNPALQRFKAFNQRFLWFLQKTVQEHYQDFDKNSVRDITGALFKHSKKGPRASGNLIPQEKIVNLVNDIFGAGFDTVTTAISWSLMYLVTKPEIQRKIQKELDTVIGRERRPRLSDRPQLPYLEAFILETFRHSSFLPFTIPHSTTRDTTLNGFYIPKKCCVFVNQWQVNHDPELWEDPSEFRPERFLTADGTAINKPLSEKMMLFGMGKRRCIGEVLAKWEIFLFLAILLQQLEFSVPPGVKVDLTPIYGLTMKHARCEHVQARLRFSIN

[3] = target: Cytochrome P450 2C9 (Homo sapiens, UniProt P11712); assay: Inhibition of CYP2C9 in human liver microsomes; type: ADME, Microsome
Cytochrome P450 2C9, sequence (P11712 whole entry): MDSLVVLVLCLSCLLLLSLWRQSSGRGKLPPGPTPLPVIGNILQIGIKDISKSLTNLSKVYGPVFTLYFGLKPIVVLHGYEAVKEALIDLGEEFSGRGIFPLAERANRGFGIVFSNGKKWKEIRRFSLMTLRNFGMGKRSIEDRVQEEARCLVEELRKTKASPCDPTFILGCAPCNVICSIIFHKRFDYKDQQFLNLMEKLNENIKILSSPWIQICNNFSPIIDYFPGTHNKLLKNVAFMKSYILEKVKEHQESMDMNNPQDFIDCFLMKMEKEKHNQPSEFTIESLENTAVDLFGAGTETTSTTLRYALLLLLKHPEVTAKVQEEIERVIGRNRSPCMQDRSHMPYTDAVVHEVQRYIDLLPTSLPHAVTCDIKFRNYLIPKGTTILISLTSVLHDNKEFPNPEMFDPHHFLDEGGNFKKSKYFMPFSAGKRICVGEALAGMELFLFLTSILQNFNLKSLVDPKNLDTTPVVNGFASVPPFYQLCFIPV

[4] = target: Cytochrome P450 2C19 (Homo sapiens, UniProt P33261); assay: Inhibition of CYP2C19 in human liver microsomes; type: ADME, Microsome
Cytochrome P450 2C19, sequence (P33261 whole entry): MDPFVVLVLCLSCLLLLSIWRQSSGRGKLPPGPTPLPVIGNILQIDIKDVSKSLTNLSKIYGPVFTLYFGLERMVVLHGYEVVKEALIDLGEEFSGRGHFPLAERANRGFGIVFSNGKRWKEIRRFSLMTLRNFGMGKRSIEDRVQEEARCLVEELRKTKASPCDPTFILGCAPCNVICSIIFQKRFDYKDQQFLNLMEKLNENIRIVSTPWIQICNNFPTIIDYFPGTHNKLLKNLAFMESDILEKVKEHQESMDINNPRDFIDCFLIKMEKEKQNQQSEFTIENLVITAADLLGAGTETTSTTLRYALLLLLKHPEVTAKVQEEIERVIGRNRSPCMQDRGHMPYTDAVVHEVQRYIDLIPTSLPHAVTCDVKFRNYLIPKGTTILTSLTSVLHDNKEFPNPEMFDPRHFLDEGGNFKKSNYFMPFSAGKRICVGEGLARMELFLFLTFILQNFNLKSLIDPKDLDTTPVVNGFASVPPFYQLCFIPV

[5] = target: Cytochrome P450 2D6 (Homo sapiens, UniProt P10635); assay: Inhibition of CYP2D6 in human liver microsomes; type: ADME, Microsome
Cytochrome P450 2D6, sequence (P10635 whole entry): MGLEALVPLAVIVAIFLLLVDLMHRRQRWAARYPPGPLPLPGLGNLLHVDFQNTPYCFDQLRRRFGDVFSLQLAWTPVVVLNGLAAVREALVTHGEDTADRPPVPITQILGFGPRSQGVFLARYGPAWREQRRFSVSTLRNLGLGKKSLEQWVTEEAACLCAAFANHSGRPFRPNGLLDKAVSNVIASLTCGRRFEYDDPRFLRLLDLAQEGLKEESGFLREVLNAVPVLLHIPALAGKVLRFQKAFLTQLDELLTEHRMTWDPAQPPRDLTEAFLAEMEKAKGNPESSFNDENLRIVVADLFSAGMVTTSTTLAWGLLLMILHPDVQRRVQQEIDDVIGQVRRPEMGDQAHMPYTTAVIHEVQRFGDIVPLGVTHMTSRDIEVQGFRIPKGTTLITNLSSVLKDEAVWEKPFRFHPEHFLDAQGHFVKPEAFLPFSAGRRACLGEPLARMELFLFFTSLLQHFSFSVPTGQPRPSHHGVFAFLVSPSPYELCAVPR

[6] = target: Cytochrome P450 3A4 (Homo sapiens, UniProt P08684); assay: Inhibition of CYP3A4 in human liver microsomes; type: ADME, Microsome
Cytochrome P450 3A4, sequence (P08684 whole entry): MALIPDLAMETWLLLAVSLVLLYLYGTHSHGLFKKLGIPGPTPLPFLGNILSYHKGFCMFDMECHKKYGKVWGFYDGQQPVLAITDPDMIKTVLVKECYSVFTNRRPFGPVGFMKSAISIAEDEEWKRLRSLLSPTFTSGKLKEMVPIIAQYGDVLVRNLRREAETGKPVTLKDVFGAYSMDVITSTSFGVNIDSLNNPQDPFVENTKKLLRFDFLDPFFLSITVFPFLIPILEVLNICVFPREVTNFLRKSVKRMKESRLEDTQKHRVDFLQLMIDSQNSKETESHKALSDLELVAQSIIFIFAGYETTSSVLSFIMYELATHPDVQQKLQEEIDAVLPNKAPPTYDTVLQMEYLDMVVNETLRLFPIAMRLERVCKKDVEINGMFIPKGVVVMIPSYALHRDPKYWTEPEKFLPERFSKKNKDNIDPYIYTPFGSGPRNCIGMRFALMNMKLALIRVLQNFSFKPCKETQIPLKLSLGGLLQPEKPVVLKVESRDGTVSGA

[7] = target: T3, Amine oxidase [flavin-containing] A (Homo sapiens, UniProt P21397); assay: biochemical
T3 sequence (P21397 whole entry): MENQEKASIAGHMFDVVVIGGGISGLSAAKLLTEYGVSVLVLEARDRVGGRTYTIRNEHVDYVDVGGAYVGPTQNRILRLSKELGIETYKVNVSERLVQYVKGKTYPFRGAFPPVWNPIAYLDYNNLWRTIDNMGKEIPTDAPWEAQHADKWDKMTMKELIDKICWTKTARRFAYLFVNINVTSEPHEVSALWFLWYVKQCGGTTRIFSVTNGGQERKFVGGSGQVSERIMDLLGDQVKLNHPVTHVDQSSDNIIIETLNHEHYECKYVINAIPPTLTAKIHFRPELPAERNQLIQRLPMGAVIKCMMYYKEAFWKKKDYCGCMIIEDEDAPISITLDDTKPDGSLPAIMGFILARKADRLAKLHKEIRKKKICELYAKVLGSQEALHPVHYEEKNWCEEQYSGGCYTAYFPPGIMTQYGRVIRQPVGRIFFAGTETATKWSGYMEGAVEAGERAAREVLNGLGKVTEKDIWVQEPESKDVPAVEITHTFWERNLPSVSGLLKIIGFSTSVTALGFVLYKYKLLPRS
Description: Inhibition of human recombinant MAO-A expressed in baculovirus infected BTI cells by luminescence assay

[8] = target: T4, Amine oxidase [flavin-containing] B (Homo sapiens, UniProt P27338); assay: biochemical
T4 sequence (P27338 whole entry): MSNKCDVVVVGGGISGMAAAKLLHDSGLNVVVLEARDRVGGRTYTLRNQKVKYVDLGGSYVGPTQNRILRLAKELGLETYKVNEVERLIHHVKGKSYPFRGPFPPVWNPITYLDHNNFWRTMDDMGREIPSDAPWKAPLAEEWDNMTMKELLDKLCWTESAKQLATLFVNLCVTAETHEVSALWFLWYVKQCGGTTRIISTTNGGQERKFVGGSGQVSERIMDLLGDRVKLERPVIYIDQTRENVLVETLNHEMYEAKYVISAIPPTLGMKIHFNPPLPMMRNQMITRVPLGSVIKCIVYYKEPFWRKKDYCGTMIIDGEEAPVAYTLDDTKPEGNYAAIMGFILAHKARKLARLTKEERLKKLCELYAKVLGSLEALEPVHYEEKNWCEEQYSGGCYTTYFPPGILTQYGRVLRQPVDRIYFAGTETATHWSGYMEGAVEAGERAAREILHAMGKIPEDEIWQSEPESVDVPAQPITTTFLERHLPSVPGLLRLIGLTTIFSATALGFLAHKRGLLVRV
Description: Inhibition of human recombinant MAO-B expressed in baculovirus infected BTI cells by luminescence assay

[9] = test system: MV4-11; assay: Antitumor activity against human MV4-11 cells xenografted in Nu/Nu female mouse model assessed as reduction in tumor volume at 20 mg/kg, sc measured immediately (reference value: 131+/-53 mm3); type: functional
[10] = test system: MV4-11; assay: Antitumor activity against human MV4-11 cells xenografted in Nu/Nu female mouse model assessed as reduction in tumor volume at 20 mg/kg, sc administered 5 days per week and measured on day 17 (reference value: 1187+/-508 mm3); type: functional; conditions: time 17 day
[11] = test system: MV4-11; assay: Antitumor activity against human MV4-11 cells xenografted in Nu/Nu female mouse model assessed as relative tumor volume at 20 mg/kg, sc administered 5 days per week and measured on day 17 (reference value: 9.52+/-4.19); type: functional; conditions: time 17 day
[12] = test system: MV4-11; assay: Antitumor activity against human MV4-11 cells xenografted in Nu/Nu female mouse model assessed as relative tumor growth rate at 20 mg/kg, sc administered 5 days per week and measured on day 17 relative to control; type: functional; conditions: time 17 day
[13] = test system: MV4-11; assay: Antitumor activity against human MV4-11 cells xenografted in Nu/Nu female mouse model assessed as tumor growth inhibition at 20 mg/kg, sc administered 5 days per week and measured on day 17 relative to control; type: functional; conditions: MV4-11, 408 h, time 17 day, read-out: TGI
[14] = test system: Kasumi 1; assay: Antiproliferative activity against human Kasumi 1 cells assessed as inhibition of cell growth incubated for 240 hrs by MTS assay; type: functional, cell-based; conditions: Kasumi 1, 240 h
[15] = test system: NCI-H526; assay: Antiproliferative activity against human NCI-H526 cells assessed as inhibition of cell growth incubated for 240 hrs by MTS assay; type: functional, cell-based; conditions: NCI-H526, 240 h
[16] = Upregulation of CD86 mRNA expression level in human MV4-11 cells measured after 24 hrs by RT-qPCR analysis; type: functional, cell-based; conditions: MV4-11, 24 h
[17] = test system: MV4-11; assay: Antitumor activity against human MV4-11 cells xenografted in Nu/Nu female mouse model assessed as reduction in tumor volume at 20 mg/kg, po qd measured immediately (reference value: 131+/-53 mm3); type: functional
[18] = test system: MV4-11; assay: Antitumor activity against human MV4-11 cells xenografted in Nu/Nu female mouse model assessed as reduction in tumor volume at 20 mg/kg, po qd and measured on day 17 (reference value: 1187+/-508 mm3); type: functional; conditions: time 17 day
[19] = test system: MV4-11; assay: Antitumor activity against human MV4-11 cells xenografted in Nu/Nu female mouse model assessed as relative tumor volume at 20 mg/kg, po qd and measured on day 17 (reference value: 9.52+/-4.19); type: functional; conditions: time 17 day
[20] = test system: MV4-11; assay: Antitumor activity against human MV4-11 cells xenografted in Nu/Nu female mouse model assessed as relative tumor growth rate at 20 mg/kg, po qd and measured on day 17 relative to control; type: functional; conditions: time 17 day
[21] = test system: MV4-11; assay: Antitumor activity against human MV4-11 cells xenografted in Nu/Nu female mouse model assessed as tumor growth inhibition at 20 mg/kg, po qd and measured on day 17 relative to control; type: functional; conditions: MV4-11, 408 h, time 17 day, read-out: TGI

| Compound | IC50 [1] [µM] | IC50 [2] [µM] | IC50 [3] [µM] | IC50 [4] [µM] | IC50 [5] [µM] | IC50 ([6]; read-out: IC50) [µM] | IC50 [7] [µM] | IC50 [8] [µM] | further results |
| --- | --- | --- | --- | --- | --- | --- | --- | --- | --- |
| Cc1ccc(-c2ncc3c(cc(CN4CC[C@H](N)C4)n3C(C)C)c2-c2ccc(C#N)c(F)c2)cc1C | > 20 | > 50 | 28.8 | 24.8 | 43.1 | 9.46 | > 20 | > 20 | – |
| Cc1ccc(-c2ncc3c(cc(CN4CC[C@H](N)C4)n3CC(F)F)c2-c2ccc(C#N)c(F)c2)cc1C | > 20 | > 50 | 45.5 | 25.8 | 45.7 | 20.9 | > 20 | > 20 | – |
| Cc1cc(C)c(-c2ncc3c(cc(CN4CC[C@H](N)C4)n3C(C)C)c2-c2ccc(C#N)c(F)c2)cc1C | > 20 | > 50 | 32.9 | – | 46.7 | – | > 20 | > 20 | IC50 [6]: 4.53 µM |
| Cc1cc(-c2ncc3c(cc(CN4CC[C@H](N)C4)n3C(C)C)c2-c2ccc(C#N)c(F)c2)cc(C)c1C | > 20 | > 50 | 30 | 17.9 | > 50 | 4.96 | > 20 | > 20 | – |
| Cc1cc(C)c(-c2ncc3c(cc(CN4CC[C@H](N)C4)n3CC(F)(F)F)c2-c2ccc(C#N)c(F)c2)cc1C | > 20 | > 50 | 27.3 | 22 | 20.4 | 7.74 | > 20 | > 20 | – |
| CCn1c(CN2CC[C@H](N)C2)cc2c(-c3ccc(C#N)c(F)c3)c(-c3cc(C)c(C)c(C)c3)ncc21 | > 20 | – | – | – | – | – | > 20 | > 20 | – |
| Cc1cc(C)c(-c2ncc3c(cc(CN4CC[C@H](N)C4)n3CC(F)F)c2-c2ccc(C#N)c(F)c2)cc1C | > 20 | – | – | – | – | – | > 20 | > 20 | – |
| Cc1cc(C)c(-c2ncc3c(cc(CN4CC[C@H](N)C4)n3C)c2-c2ccc(C#N)c(F)c2)cc1C | > 20 | – | – | – | – | – | > 20 | > 20 | – |
| Nc1ccn([C@@H]2O[C@H](CO)[C@@H](O)[C@@H]2O)c(=O)n1 [CYTARABINE] | – | – | – | – | – | – | – | – | Activity [9]: 131 mm3; Activity [10]: 741 mm3; Activity [11]: 5.65; Activity [12]: 59.36%; inhibition in vivo at 20 mg/kg [13]: 54.7% |
| COc1ccc(-c2c(-c3ccc(C#N)c(F)c3)nc(N3CCC(N)CC3)n(C)c2=O)cc1F [PULRODEMSTAT] | – | – | – | – | – | – | – | – | IC50 [14]: 0.003 µM; IC50 [15]: 0.01 µM; EC50 [16]: 0.032 µM; Activity [17]: 132 mm3; Activity [18]: 554 mm3; Activity [19]: 3.75; Activity [20]: 39.33%; inhibition in vivo at 20 mg/kg [21]: 64.2% |
